Assay results taken from paper PMC12225012, “Identification and Application of a Novel Patulin Degrading Enzyme From Meyerozyma guilliermondii” (Advanced Science, 2025).

Molecular target: T1, MgSDR1 (Meyerozyma guilliermondii, UniProt A5DPG9)
T1 construct: gene PGUG_05170; pET-30a(+) BamHI/XhoI, N-terminal 6xHis tag, E. coli Rosetta (DE3), imidazole-eluted, approx. 40 kDa with tag; catalytic triad Ser174-Tyr188-Lys192; GXXXGXG and YXXXK motifs
Assay: degradation kinetics (details in supplement)
Type: biochemical
Conditions: co-substrate NADPH; pH and temperature of the kinetic assay not given in the main text

T1 sequence (A5DPG9 entry or part of it): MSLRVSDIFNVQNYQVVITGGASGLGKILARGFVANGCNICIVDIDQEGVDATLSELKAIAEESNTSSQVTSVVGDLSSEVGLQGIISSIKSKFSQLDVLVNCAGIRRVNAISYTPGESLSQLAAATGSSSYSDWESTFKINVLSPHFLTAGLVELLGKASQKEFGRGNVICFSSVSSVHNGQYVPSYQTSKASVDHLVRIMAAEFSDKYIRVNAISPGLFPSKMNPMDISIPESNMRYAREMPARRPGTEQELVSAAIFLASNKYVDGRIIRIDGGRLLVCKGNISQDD

SMILES: O=C1C=C2C(=CCOC2O)O1 (stereo not shown) [PAT]
- Km: 1420 µM
